Source: the NIST ThermoML archive (doi:10.1021/acs.jced.5b00813)
± gives the expanded uncertainty stated by the source.

Assays:
[1] = 298.15 K; 100 kPa; Liquid; Vibrating tube method
[2] = refractive index (Na D-line) (dimensionless); conditions: 298.15 K; 101.33 kPa; Liquid; Standard Abbe refractometry
[3] = xn = mol fraction of the nth substance listed; conditions: 298.15 K, 100 kPa, Liquid, Vibrating tube method
[4] = excess molar enthalpy (molar enthalpy of mixing); xn = mol fraction of the nth substance listed; conditions: 298.15 K, 100 kPa, Liquid, Calvet calorimetry

COC(C)=O [methyl ethanoate]
Conditions	mass density [kg/m3]	refractive index
[1]	927.16 ± 1	–
[2]	–	1.3588 ± 0.0005

CCCCCCCC [octane] + COC(C)=O
Conditions	mass density [kg/m3]
[3], x1 = 1	698.58 ± 1

CCCCC(=O)OC [methyl pentanoate] + CCCCCCCC
Conditions	excess molar enthalpy [kcal/mol]	mass density [kg/m3]
[3], x2 = 0	–	884.84 ± 1
[3], x2 = 0.0514	–	872.35 ± 1
[3], x2 = 0.1005	–	860.71 ± 1
[3], x2 = 0.161	–	846.85 ± 1
[3], x2 = 0.2134	–	835.46 ± 1
[3], x2 = 0.2601	–	825.47 ± 1
[3], x2 = 0.3084	–	815.53 ± 1
[3], x2 = 0.3625	–	804.47 ± 1
[3], x2 = 0.4427	–	788.93 ± 1
[3], x2 = 0.4558	–	786.45 ± 1
[3], x2 = 0.5104	–	776.34 ± 1
[3], x2 = 0.5504	–	769.1 ± 1
[3], x2 = 0.6116	–	758.45 ± 1
[3], x2 = 0.6541	–	751.22 ± 1
[3], x2 = 0.7081	–	742.25 ± 1
[3], x2 = 0.7535	–	734.86 ± 1
[3], x2 = 0.8013	–	727.38 ± 1
[3], x2 = 0.8518	–	719.71 ± 1
[3], x2 = 0.9059	–	711.73 ± 1
[3], x2 = 0.9521	–	705.03 ± 1
[4], x2 = 0.0427	0.0387 ± 0.000956	–
[4], x2 = 0.0951	0.0805 ± 0.00191	–
[4], x2 = 0.1523	0.122 ± 0.00263	–
[4], x2 = 0.2098	0.158 ± 0.00335	–
[4], x2 = 0.2677	0.187 ± 0.00406	–
[4], x2 = 0.3234	0.211 ± 0.00454	–
[4], x2 = 0.377	0.228 ± 0.00502	–
[4], x2 = 0.4266	0.24 ± 0.00526	–
[4], x2 = 0.4619	0.249 ± 0.00526	–
[4], x2 = 0.4695	0.249 ± 0.00526	–
[4], x2 = 0.5113	0.252 ± 0.0055	–
[4], x2 = 0.5126	0.25 ± 0.0055	–
[4], x2 = 0.5411	0.249 ± 0.00526	–
[4], x2 = 0.5701	0.248 ± 0.00526	–
[4], x2 = 0.6364	0.236 ± 0.00502	–
[4], x2 = 0.709	0.212 ± 0.00454	–
[4], x2 = 0.7745	0.181 ± 0.00382	–
[4], x2 = 0.8541	0.131 ± 0.00287	–
[4], x2 = 0.9325	0.0547 ± 0.0012	–

COC(C)=O [methyl ethanoate] + CCCCC(=O)OC
Conditions	mass density [kg/m3]
[3], x2 = 0	927.16 ± 1

CCCCCCCC [octane] + CCCC(=O)OC
Conditions	mass density [kg/m3]
[3], x1 = 1	698.58 ± 1

CC(C)CC(C)(C)C [2,2,4-trimethylpentane] + CCCCC(=O)OC
Conditions	mass density [kg/m3]
[3], x1 = 1	687.75 ± 1

CCCCC(=O)OC [methyl pentanoate] + COC(C)=O
Conditions	excess molar enthalpy [kcal/mol]	mass density [kg/m3]
[3], x1 = 0.0496	–	922.92 ± 1
[3], x1 = 0.1001	–	919.44 ± 1
[3], x1 = 0.1536	–	916.04 ± 1
[3], x1 = 0.2027	–	913.18 ± 1
[3], x1 = 0.2511	–	910.53 ± 1
[3], x1 = 0.3522	–	905.55 ± 1
[3], x1 = 0.4013	–	903.35 ± 1
[3], x1 = 0.4497	–	901.35 ± 1
[3], x1 = 0.4935	–	899.62 ± 1
[3], x1 = 0.5444	–	897.75 ± 1
[3], x1 = 0.5935	–	896.01 ± 1
[3], x1 = 0.6563	–	893.98 ± 1
[3], x1 = 0.7383	–	891.47 ± 1
[3], x1 = 0.7902	–	890.02 ± 1
[3], x1 = 0.843	–	888.62 ± 1
[3], x1 = 0.8918	–	887.4 ± 1
[3], x1 = 0.9372	–	886.3 ± 1
[3], x1 = 1	–	884.84 ± 1
[4], x1 = 0.0539	0.012 ± 0.000478	–
[4], x1 = 0.113	0.0229 ± 0.000478	–
[4], x1 = 0.1716	0.0323 ± 0.000717	–
[4], x1 = 0.2347	0.0413 ± 0.000956	–
[4], x1 = 0.2915	0.0473 ± 0.0012	–
[4], x1 = 0.344	0.0521 ± 0.0012	–
[4], x1 = 0.3954	0.0552 ± 0.0012	–
[4], x1 = 0.4441	0.0571 ± 0.0012	–
[4], x1 = 0.5055	0.0569 ± 0.0012	–
[4], x1 = 0.5754	0.0545 ± 0.0012	–
[4], x1 = 0.6517	0.0507 ± 0.0012	–
[4], x1 = 0.7339	0.0425 ± 0.000956	–
[4], x1 = 0.8188	0.0301 ± 0.000717	–
[4], x1 = 0.9036	0.0179 ± 0.000478	–

COC(C)=O [methyl ethanoate] + CCCCCCCC
Conditions	excess molar enthalpy [kcal/mol]	mass density [kg/m3]
[3], x2 = 0	–	927.16 ± 1
[3], x2 = 0.0493	–	901.46 ± 1
[3], x2 = 0.1011	–	878.04 ± 1
[3], x2 = 0.1517	–	857.91 ± 1
[3], x2 = 0.2033	–	839.55 ± 1
[3], x2 = 0.253	–	823.66 ± 1
[3], x2 = 0.3008	–	809.86 ± 1
[3], x2 = 0.3471	–	797.79 ± 1
[3], x2 = 0.3946	–	786.15 ± 1
[3], x2 = 0.4523	–	773.45 ± 1
[3], x2 = 0.4951	–	764.76 ± 1
[3], x2 = 0.5307	–	758.11 ± 1
[3], x2 = 0.5777	–	749.93 ± 1
[3], x2 = 0.5898	–	747.92 ± 1
[3], x2 = 0.6146	–	743.98 ± 1
[3], x2 = 0.6388	–	740.27 ± 1
[3], x2 = 0.6699	–	735.52 ± 1
[3], x2 = 0.7238	–	728.1 ± 1
[3], x2 = 0.7841	–	720.49 ± 1
[3], x2 = 0.8333	–	714.64 ± 1
[3], x2 = 0.8887	–	708.75 ± 1
[3], x2 = 0.9311	–	704.69 ± 1
[3], x2 = 0.9585	–	702.21 ± 1
[4], x2 = 0.0466	0.0992 ± 0.00239	–
[4], x2 = 0.1009	0.194 ± 0.0043	–
[4], x2 = 0.1504	0.271 ± 0.00574	–
[4], x2 = 0.2057	0.338 ± 0.00717	–
[4], x2 = 0.258	0.391 ± 0.00837	–
[4], x2 = 0.3043	0.427 ± 0.00908	–
[4], x2 = 0.3516	0.455 ± 0.0098	–
[4], x2 = 0.3642	0.464 ± 0.0098	–
[4], x2 = 0.3999	0.479 ± 0.0103	–
[4], x2 = 0.446	0.487 ± 0.0103	–
[4], x2 = 0.5006	0.487 ± 0.0103	–
[4], x2 = 0.5742	0.467 ± 0.01	–
[4], x2 = 0.6631	0.417 ± 0.00884	–
[4], x2 = 0.7615	0.331 ± 0.00717	–
[4], x2 = 0.8485	0.226 ± 0.00478	–
[4], x2 = 0.9324	0.107 ± 0.00239	–

CCCCCCCC [octane]
Conditions	mass density [kg/m3]	refractive index
[1]	698.58 ± 1	–
[2]	–	1.3952 ± 0.0005

COC(C)=O [methyl ethanoate] + CC(C)CC(C)(C)C
Conditions	excess molar enthalpy [kcal/mol]	mass density [kg/m3]
[3], x2 = 0	–	927.16 ± 1
[3], x2 = 0.0375	–	906.89 ± 1
[3], x2 = 0.1025	–	876.58 ± 1
[3], x2 = 0.1652	–	851.09 ± 1
[3], x2 = 0.1775	–	846.59 ± 1
[3], x2 = 0.2189	–	832.07 ± 1
[3], x2 = 0.2615	–	818.03 ± 1
[3], x2 = 0.302	–	805.95 ± 1
[3], x2 = 0.3902	–	782.41 ± 1
[3], x2 = 0.4061	–	778.52 ± 1
[3], x2 = 0.4249	–	774.09 ± 1
[3], x2 = 0.4627	–	765.54 ± 1
[3], x2 = 0.5239	–	752.92 ± 1
[3], x2 = 0.5411	–	749.57 ± 1
[3], x2 = 0.61	–	737.18 ± 1
[3], x2 = 0.6612	–	728.76 ± 1
[3], x2 = 0.6786	–	726.1 ± 1
[3], x2 = 0.7359	–	717.6 ± 1
[3], x2 = 0.8086	–	708.07 ± 1
[3], x2 = 0.8803	–	699.86 ± 1
[3], x2 = 0.9521	–	692.07 ± 1
[4], x2 = 0.02	0.037 ± 0.0012	–
[4], x2 = 0.0525	0.0989 ± 0.00239	–
[4], x2 = 0.0892	0.158 ± 0.00335	–
[4], x2 = 0.1241	0.205 ± 0.00454	–
[4], x2 = 0.1687	0.25 ± 0.0055	–
[4], x2 = 0.2084	0.291 ± 0.00621	–
[4], x2 = 0.256	0.331 ± 0.00717	–
[4], x2 = 0.3079	0.369 ± 0.00789	–
[4], x2 = 0.3608	0.397 ± 0.00837	–
[4], x2 = 0.3915	0.409 ± 0.00884	–
[4], x2 = 0.4323	0.421 ± 0.00908	–
[4], x2 = 0.4764	0.428 ± 0.00908	–
[4], x2 = 0.5406	0.42 ± 0.00908	–
[4], x2 = 0.6163	0.393 ± 0.00837	–
[4], x2 = 0.6888	0.348 ± 0.00741	–
[4], x2 = 0.7833	0.275 ± 0.00598	–
[4], x2 = 0.8597	0.189 ± 0.00406	–
[4], x2 = 0.9422	0.0851 ± 0.00191	–
